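Cells were grown in 96-well plates and exposed to each compound for 48 hours at five concentrations; endpoints were interpolated linearly between bracketing concentrations, or set to the highest concentration if not reached. Abbreviation: GI50, concentration required for 50% inhibition of growth. The concentration for full growth arrest is given as TGI.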
Columns and labels:
Test in all cases: NCI tumour cell line growth inhibition, 48 h
[1] = test system: TK-10 renal
[2] = test system: SK-MEL-5 melanoma
[3] = test system: ACHN renal
[4] = test system: BT-549 breast
[5] = test system: SW-620 colon
[6] = test system: M14 melanoma
[7] = test system: OVCAR-8 ovarian
[8] = test system: HL-60(TB) leukemia
[9] = test system: SK-MEL-2 melanoma
[10] = test system: HOP-92 NSCLC
[11] = test system: UACC-257 melanoma
[12] = test system: HCT-116 colon
[13] = test system: XF 498 CNS
[14] = test system: SF-295 CNS
[15] = test system: NCI-H226 lung
[16] = test system: SK-OV-3 ovarian
[17] = test system: SNB-75 CNS
[18] = test system: EKVX NSCLC
[19] = test system: RPMI-8226 leukemia
[20] = test system: HOP-18 NSCLC
[21] = test system: K-562 leukemia
[22] = test system: A549 NSCLC
[23] = test system: OVCAR-4 ovarian
[24] = test system: A498 renal
[25] = test system: DU-145 prostate
[26] = test system: HCT-15 colon
[27] = test system: KM12 colon
[28] = test system: MDA-MB-231 breast
[29] = test system: KM20L2 colon
[30] = test system: DLD-1 colon
[31] = test system: HOP-62 NSCLC
[32] = test system: UACC-62 melanoma
[33] = test system: CCRF-CEM leukemia
[34] = test system: HCC-2998 colon
[35] = test system: NCI-H23 lung
[36] = test system: MOLT-4 leukemia
[37] = test system: SR leukemia
[38] = test system: SN12K1 renal
[39] = test system: COLO 205 colon
[40] = test system: DMS 114 small cell lung
[41] = test system: P388 leukemia
[42] = test system: OVCAR-5 ovarian
[43] = test system: HT29 colon
[44] = test system: SNB-78 CNS
[45] = test system: LOX IMVI melanoma
[46] = test system: MDA-N
[47] = test system: T-47D breast
[48] = test system: MALME-3M melanoma
[49] = test system: SF-539 CNS
[50] = test system: OVCAR-3 ovarian
[51] = test system: MCF7 breast
[52] = test system: 786-0 renal
[53] = test system: U251 CNS
[54] = test system: SNB-19 CNS
[55] = test system: M19-MEL melanoma
[56] = test system: P388/ADR leukemia
[57] = test system: HS 578T breast
[58] = test system: IGROV1 ovarian
[59] = test system: RXF 393 renal
[60] = test system: CAKI-1 renal
[61] = test system: SK-MEL-28 melanoma
[62] = test system: PC-3 prostate
[63] = test system: NCI/ADR-RES ovarian
[64] = test system: SF-268 CNS
[65] = test system: UO-31 renal
[66] = test system: SN12C renal
[67] = test system: DMS 273 small cell lung
[68] = test system: NCI-H522 lung
[69] = test system: MDA-MB-435

`COC1C(OC(=O)/C=C/C=C/C=C/C=C/C(=O)O)CCC2(CO2)C1C1(C)OC1CC=C(C)C` (stereo unspecified) gave a TGI [1] of over 100000 nM, a GI50 [2] of 271 nM and a TGI [2] of over 64900 nM. The GI50 [3] was 373 nM, the TGI [3] was 49000 nM and the GI50 [4] was 268 nM. It also gave a TGI [4] of over 100000 nM, a GI50 [5] of 272 nM and a TGI [5] of over 100000 nM. It also gave a TGI [6] of 69800 nM, a GI50 [7] of 301 nM and a TGI [7] of over 92000 nM. For the same compound, the GI50 [8] was 187 nM, the TGI [8] was 70600 nM and the TGI [9] was over 85300 nM. It also gave a GI50 [10] of 438 nM, a TGI [10] of over 76100 nM and a GI50 [11] of 489 nM. It also gave a TGI [11] of over 84200 nM, a GI50 [12] of 120 nM and a TGI [12] of over 100000 nM. The TGI [13] was over 100000 nM, the GI50 [14] was 193 nM and the TGI [14] was over 96800 nM. It also gave a TGI [15] of over 100000 nM, a TGI [16] of over 84500 nM and a GI50 [17] of 287 nM. It also gave a TGI [17] of over 86400 nM, a GI50 [18] of 436 nM and a TGI [18] of over 82900 nM. For the same compound, the GI50 [19] was 165 nM, the TGI [19] was 78600 nM and the TGI [20] was 94800 nM. It also gave a TGI [21] of over 89600 nM, a GI50 [22] of 308 nM and a TGI [22] of over 100000 nM. It also gave a GI50 [23] of 184 nM, a TGI [23] of over 87000 nM and a TGI [24] of over 100000 nM. The GI50 [25] was 651 nM, the TGI [25] was over 100000 nM and the GI50 [26] was 296 nM. The TGI [26] was over 93900 nM, the GI50 [27] was 471 nM and the TGI [27] was 29400 nM. It also gave a GI50 [28] of 525 nM, a TGI [28] of 80500 nM and a TGI [29] of over 100000 nM. The TGI [30] was over 100000 nM, the GI50 [31] was 198 nM and the TGI [31] was over 100000 nM. The GI50 [32] was 101 nM, the GI50 [33] was 386 nM and the TGI [33] was 78100 nM. It also gave a GI50 [34] of 231 nM, a TGI [34] of over 71400 nM and a GI50 [35] of 193 nM. The TGI [35] was over 83700 nM, the GI50 [36] was 347 nM and the TGI [36] was 78700 nM. It also gave a GI50 [37] of 220 nM, a TGI [37] of 67600 nM and a TGI [38] of over 100000 nM. The GI50 [39] was 157 nM, the TGI [39] was 26100 nM and the TGI [40] was over 100000 nM. For the same compound, the TGI [41] was 29100 nM, the TGI [42] was over 100000 nM and the GI50 [43] was 181 nM. The TGI [44] was over 100000 nM, the GI50 [45] was 183 nM and the GI50 [46] was 246 nM. For the same compound, the TGI [46] was over 100000 nM, the GI50 [47] was 326 nM and the TGI [47] was 70200 nM. For the same compound, the GI50 [48] was 450 nM, the TGI [48] was over 75300 nM and the GI50 [49] was 347 nM. For the same compound, the TGI [49] was over 100000 nM, the GI50 [50] was 314 nM and the TGI [50] was over 80900 nM. For the same compound, the GI50 [51] was 172 nM, the TGI [51] was over 100000 nM and the GI50 [52] was 310 nM. For the same compound, the TGI [52] was over 100000 nM, the GI50 [53] was 32 nM and the GI50 [54] was 277 nM. It also gave a TGI [54] of over 100000 nM, a TGI [55] of over 100000 nM and a TGI [56] of over 49200 nM. For the same compound, the TGI [57] was over 100000 nM, the TGI [58] was over 95100 nM and the GI50 [59] was 265 nM. The GI50 [60] was 414 nM, the TGI [60] was over 100000 nM and the GI50 [61] was 442 nM. The TGI [61] was over 100000 nM, the TGI [62] was 73100 nM and the TGI [63] was 97700 nM. The GI50 [64] was 388 nM, the TGI [64] was over 100000 nM and the TGI [65] was over 82200 nM. For the same compound, the GI50 [66] was 225 nM, the TGI [67] was over 100000 nM and the GI50 [68] was 137 nM. It also gave a GI50 [69] of 105 nM.

Source: PubChem BioAssay (NCI)
